Source: ChEMBL document CHEMBL5120954, “Novel MRGX2 Antagonists for Treating Diseases” (ACS Med Chem Lett, 2022)

These molecules were tested against T1, Mas-related G-protein coupled receptor member X2 (Homo sapiens, UniProt Q96LB1) (assay: Antagonist activity at human MRGPRX2 expressed in HEK293 cells co-expressing mouse Galpha15 assessed as inhibition of Cortistatin-14 induced Ca2+ mobilization preincubated for 30 mins followed by Cortistatin-14 addition by FLIPRtetra-calcium mobilization assay).
T1 sequence (Q96LB1 whole entry): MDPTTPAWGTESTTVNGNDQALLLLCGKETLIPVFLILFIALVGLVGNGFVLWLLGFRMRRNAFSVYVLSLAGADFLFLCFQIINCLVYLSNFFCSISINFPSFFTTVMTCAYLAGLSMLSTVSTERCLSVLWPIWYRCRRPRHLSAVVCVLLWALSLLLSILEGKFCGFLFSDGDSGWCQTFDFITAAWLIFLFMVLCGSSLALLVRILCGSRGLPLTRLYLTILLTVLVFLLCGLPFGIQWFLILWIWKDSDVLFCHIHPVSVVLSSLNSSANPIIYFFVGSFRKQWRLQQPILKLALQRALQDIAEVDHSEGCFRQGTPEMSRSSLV
Type: functional, cell-based

SMILES	IC50
CC(C(=O)Nc1ccc(Oc2ccc(F)cc2)cn1)C1CCC(F)(F)C(c2ccc(=O)[nH]c2)C1 (stereo not given)	≤ 10 nM
CC(C(=O)Nc1ccc(Oc2cnc(F)cc2Cl)cn1)N1CCC(F)(F)[C@@H](c2ccc(=O)[nH]c2)C1 (stereo not given in full)	≤ 10 nM
CC(C(=O)Nc1ccc(Oc2ccccc2)cn1)N1CCC(F)(F)[C@@H](c2c[nH]c(=O)c(CN)c2)C1 (stereo not given in full)	≤ 10 nM

Next, values leading:

IC50	SMILES
≤ 10 nM	CC(C(=O)Nc1ccc(Oc2ccc(F)cc2)cn1)N1CCC(F)(F)C(c2c[nH]c(=O)c(CNCCO)c2)C1 (stereo not given)
≤ 10 nM	C[C@@H](C(=O)Nc1ccc(Oc2ccc(F)cc2F)cn1)N1CCC(F)(F)[C@@H](c2c[nH]c(=O)c(CS(C)(=O)=O)c2)C1
